Assay results taken from publication PMC9774750, “Phenolic Fingerprinting and Bioactivity Profiling of Extracts and Isolated Compounds from Gypothamnium pinifolium Phil” (Antioxidants, 2022).
Entries after “also recorded” stand apart in the source; their conditions may differ.

Tests used:
[1] = ABTS•+ scavenging capacity; format: biochemical; settings: mean ± SD, n = 3
Description: The ABTS^•+ radical scavenging assay was employed to determine the antioxidant activity of G. pinifolium conventional extracts; the radical solution was prepared 16 h before the measurements mixing 7 mM ABTS and 2.45 mM K2S2O8, and the solution was stored protected from the light at room temperature until the ABTS radical formation. For the assay, were mixed 250 µL of ABTS radical with an increasing concentration of sample or positive control (Trolox), and after half an hour, the absorbance was measured at 734 nm with a Synergy HTX microplate reader. The results are expressed as IC50 in µg of extract or Trolox per mL. The percentage of radical inhibition formula was employed for the ABTS inhibition calculation, then the IC50 was calculated through linear regression (concentration vs. inhibition percentage), and the data is reported as the mean ± SD.

Radical DPPH inhibition = format: biochemical; settings: mean ± SD, n = 3
Description: The radical DPPH inhibition was performed by mixing thoroughly 150 µL of DPPH 400 μM with 50 µL of the sample or positive control, the 96-well microplate was kept protected from the light, and after half hour of reaction, the absorbance was recorded at 515 nm in a Synergy HTX microplate reader [13, 16]. All the measurements were performed in triplicate. The data are expressed as IC50 in µg of extract or standard per mL and reported as the mean ± SD. The determination of the IC50 was performed using linear regression. Methanol was employed as a negative control and BHT as a positive control. The percentage of DPPH radical inhibition was calculated according to the following equation: Percentage of radical inhibition (%)=(1−A−As/ADPPH)×100
A: is the absorbance of the mixture of extract and radical, As: is the absorbance of the methanol and extract, and ADDPH: is the absorbance of the radical work solution.

T-47D cells (breast) = test: Antiproliferative activity (SRB), T-47D; format: cell-based, human; settings: 48 h, means ± SEM, n = 3
Description: (§1) Stock solutions in DMSO of the samples were prepared to dissolve the plant extract at a concentration of 100 mg/mL and the pure compounds 1–2 at 40 mM. For the antiproliferative activity tests, human solid tumor cells (100 µL) were seeded onto 96-well plates at a density of 2500 (A549, HBL-100, HeLa, and SW1573) or 5000 (T-47D, and WiDr) cells/well.
(§2) On the next day, the samples were added to the cell cultures in triplicate at decimal dilutions in the range 250 to 2.5 µg/mL for the extracts and 100 to 0.001 µM for compounds 1–2. Control cells were exposed to an equivalent amount of DMSO (0.25% v/v, negative control). Cells were incubated for an additional 48 h, after which time they were precipitated with 25 μL of ice-cold TCA (50% w/v) and fixed for 60 min at 4 °C [20]. Following sulforhodamine B staining, the optical density (OD) of each well was measured at 530 nm using a BioTek Power Wave XS absorbance microplate reader. Values were corrected with the background OD of the wells containing the control. […] The cell lines used in this study were kindly provided by Prof. Godefridus J. Peters (VUmc, Amsterdam, The Netherlands).

WiDr cells (colon) = test: Antiproliferative activity (SRB), WiDr; format: cell-based, human; settings: 48 h, means ± SEM, n = 3
Description: as §1, §2

HeLa cells (cervix) = test: Antiproliferative activity (SRB), HeLa; format: cell-based; settings: 48 h; for GI50 / TGI (total growth inhibition) against HeLa cells: SRB; for GI50: means ± SEM, n = 3; for LC50 (50% lethal concentration): read-out: LC50 against HeLa cells
Description: as §1, §2

A549 cells (lung) = test: Antiproliferative activity (SRB), A549; format: cell-based, human; settings: means ± SEM, n = 3
Description: as §1, §2

HBL-100 cells (breast) = test: Antiproliferative activity (SRB), HBL-100; format: cell-based, human; settings: means ± SEM, n = 3
Description: as §1, §2

SW1573 cells (lung) = test: Antiproliferative activity (SRB), SW1573; format: cell-based, human; settings: means ± SEM, n = 3
Description: as §1, §2

[2] = molecular target: T1, butyrylcholinesterase (BChE) (Equus caballus, UniProt P81908); test: biochemical; settings: means ± SD, n = 3; read-out: BChE Inhibition IC50 (converted)
T1 construct: purchased Sigma-Aldrich Chem. Co. (St. Louis, MO, USA); host or cells: equine serum
Description: (§3) The systems Arium 126 61316-RO and Arium 611 UV unit (Sartorius, Goettingen, Germany) were employed to get the ultra-pure water. […] Formic acid, methanol, ethyl acetate, and n-hexane of HPLC grade were obtained from Merk® (Santiago, Chile).
(§4) The Ellman method was used for the determination of the inhibitory potential against AChE and BChE. The enzymes were dissolved in Tris-HCl buffer 50 mM at pH 8.0 at the final concentration of 0.26 U/mL, and samples were prepared at 2 mg/mL and dissolved in buffer. […] Finally, to start the reaction, we added 20 µL of the substrate (acetyl-thiocholine iodide for AChE inhibition or butyryl-thiocholine chloride for BChE inhibition assays), and the absorbance was recorded at 405 nm for half an hour at 37 °C. The analysis was performed in triplicate, and the results are expressed as IC50.

[3] = molecular target: T2, acetylcholinesterase (AChE) (Electrophorus electricus, UniProt O42275); test: biochemical; settings: means ± SD, n = 3; read-out: AChE Inhibition IC50 (converted)
T2 construct: purchased Sigma-Aldrich Chem. Co. (St. Louis, MO, USA)
Description: as §3, §4

MCF-7 = test system: MCF-7; parameters: method as in doi:10.1016/j.indcrop.2015.06.033; settings: 24 h of drug exposure; read-out: IC50 cell growth inhibition MCF-7; cited from earlier work
intact rat aorta = test: Vascular reactivity, relaxation of PE pre-contracted aortic rings; parameters: species or system Sprague Dawley rats; settings: 10^−9–10^−4 M, pre-contracted with 10^−6 M PE, three experiments
Description: The investigation was conducted according to the local ethics research committee of Universidad de Antofagasta, which ratified the experimental procedures (CEIC #275/2020 and CEIC #366/2022) for the use of a normotensive animal model (n = 3–6). The characteristics of the animals were as follows: male Sprague Dawley rats, six to eight weeks old, weighing between 170 and 200 g. The animals were kept at room temperature (22–25 °C) with 45–51% of humidity with ad libitum free-choice access to tap water and food and were randomized.
All the animals were euthanized by cervical dislocation and immediately proceeded to dissection of the aorta. Then the vascular tissue was arranged in organ baths that were filled with Krebs-Ringer bicarbonate solution pH 7.4 and remained at 37 °C with a constant flux of gas (95% O2 and 5% CO2). Once the tissue was stabilized and the integrity of the vascular endothelium was evaluated, the aortic rings were pre-contracted with 10^−6 M phenylephrine (PE), and after ten minutes, increasing concentrations of G. pinifolium extract, 2-nor-1,2-secolycoserone or ent-labda-8,13-E-diene-15-ol were added in the organ bath.
The data acquired from vascular reactivity assays were expressed as average ± standard error of the mean (SEM). One-way analysis of variance (ANOVA) followed by the Dunnett test was employed for statistical data analysis. […]

HeLa cells = test: Label-free continuous live-cell imaging, apoptosis kinetics (LCDA); format: cell-based, human; settings: 20 h exposure, 1 at 80 µM, 2 at 50 µM
Description: The imaging platform microscope CX-A (Nanolive SA, Lausanne, Switzerland) was used to get refractive indexes (RIs), creating a holotomographic 3D image of the cells. HeLa cells were employed at a density of 50,000 cells/well onto an IBIDI μ-Dish, 35 mm high (IBIDI, Gräfelfing, Munich, Germany) and treated with compounds 1 and 2 right before the acquisition of the images at a dose of 80 µM and 50 µM, respectively. Data obtained were transferred to FIJI (NIH, Bethesda, MD, USA) for image analysis. The LIVE Cell Death Assay (LCDA) software (Nanolive SA) was used for the analysis of the RIs and for obtaining apoptosis kinetics.

[4] = test system: A549, SW1573, HBL-100, T-47D, HeLa, WiDr; test: Antiproliferative activity (SRB), panel of six human solid tumor cell lines; format: cell-based; settings: 48 h, read-out: GI50 range over all cell lines
Description: as §1, §2

T2 sequence (O42275 24-633): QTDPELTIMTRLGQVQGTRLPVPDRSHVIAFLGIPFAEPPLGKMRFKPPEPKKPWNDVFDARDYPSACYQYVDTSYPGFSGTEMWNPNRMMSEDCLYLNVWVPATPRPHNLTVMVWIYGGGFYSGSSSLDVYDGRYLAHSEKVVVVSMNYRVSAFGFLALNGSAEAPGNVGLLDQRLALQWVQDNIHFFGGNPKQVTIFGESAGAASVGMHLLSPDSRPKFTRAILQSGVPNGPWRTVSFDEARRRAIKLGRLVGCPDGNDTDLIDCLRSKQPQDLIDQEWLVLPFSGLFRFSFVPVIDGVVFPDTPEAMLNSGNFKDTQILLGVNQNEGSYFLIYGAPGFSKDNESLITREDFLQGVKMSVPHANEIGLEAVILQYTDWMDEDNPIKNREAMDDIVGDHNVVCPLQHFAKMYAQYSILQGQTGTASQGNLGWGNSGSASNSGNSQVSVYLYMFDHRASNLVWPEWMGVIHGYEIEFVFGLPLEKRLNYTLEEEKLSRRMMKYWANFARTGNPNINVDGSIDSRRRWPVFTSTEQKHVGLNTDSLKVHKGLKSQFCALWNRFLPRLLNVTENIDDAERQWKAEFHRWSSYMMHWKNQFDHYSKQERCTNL
T1 sequence (P81908 whole entry): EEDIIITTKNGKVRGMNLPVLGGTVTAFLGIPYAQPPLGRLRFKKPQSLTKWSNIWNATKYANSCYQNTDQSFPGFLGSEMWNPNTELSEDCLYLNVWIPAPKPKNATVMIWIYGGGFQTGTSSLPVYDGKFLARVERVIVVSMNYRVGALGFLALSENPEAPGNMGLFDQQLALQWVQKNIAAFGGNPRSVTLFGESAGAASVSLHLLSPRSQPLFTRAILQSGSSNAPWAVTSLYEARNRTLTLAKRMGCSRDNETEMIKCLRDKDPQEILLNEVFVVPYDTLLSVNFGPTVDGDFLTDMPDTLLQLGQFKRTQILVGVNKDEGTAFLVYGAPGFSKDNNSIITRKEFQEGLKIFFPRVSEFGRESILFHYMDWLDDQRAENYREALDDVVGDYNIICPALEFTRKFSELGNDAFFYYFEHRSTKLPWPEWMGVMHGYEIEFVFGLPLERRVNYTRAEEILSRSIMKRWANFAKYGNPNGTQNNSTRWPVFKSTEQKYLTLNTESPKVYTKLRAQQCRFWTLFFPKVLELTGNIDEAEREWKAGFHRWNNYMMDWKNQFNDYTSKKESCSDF

| Structure (SMILES) | GI50 (T-47D cells (breast); Homo sapiens, T47D) [µM] | GI50 (WiDr cells (colon); Homo sapiens, WiDr) [µM] | TGI (total growth inhibition) against HeLa cells (HeLa cells (cervix)) [µM] | LC50 (50% lethal concentration) (HeLa cells (cervix); Homo sapiens, HeLa) [µM] | GI50 (HeLa cells (cervix); Homo sapiens, HeLa) [µM] | GI50 (A549 cells (lung); Homo sapiens, A549, 48 h) [µM] | IC50 [2] [µM] | IC50 [3] [µM] | GI50 (HBL-100 cells (breast); Homo sapiens, HBL-100, 48 h) [µM] | GI50 (SW1573 cells (lung); Homo sapiens, SW1573, 48 h) [µM] | relaxation effect in aortic rings (intact rat aorta) | also measured |
| --- | --- | --- | --- | --- | --- | --- | --- | --- | --- | --- | --- | --- |
| Cc1c(C)c2c(c(C)c1O)CCC(C)(C(=O)O)O2 (racemic) [Trolox, (±)-6-Hydroxy-2,5,7,8-tetramethylchromane-2-carboxylic acid] |  |  |  |  |  |  |  |  |  |  |  | ABTS IC50 [1]: 2.33 ± 0.11 μg per mL |
| Cc1cc(C(C)(C)C)c(O)c(C(C)(C)C)c1 [BHT] |  |  |  |  |  |  |  |  |  |  |  | DPPH IC50 (Radical DPPH inhibition): 25.09 ± 0.55 μg per mL |
| N.N.[Cl][Pt][Cl] [Cisplatin, reference compound] |  |  |  |  |  |  |  |  |  |  |  | GI50 (T-47D cells (breast)): 17 ± 3.3 µM; GI50 (WiDr cells (colon)): 23 ± 4.3 µM; GI50 (HeLa cells (cervix)): 1.8 ± 0.5 µM; GI50 (A549 cells (lung); 48 h): 4.9 ± 0.2 µM; GI50 (HBL-100 cells (breast); 48 h): 1.9 ± 0.2 µM; GI50 (SW1573 cells (lung); 48 h): 2.7 ± 0.4 µM |
| CC1=C(C(=O)CC(C)C)O[C@@H](CC(=O)c2c(C)cccc2O)[C@H]2[C@@H]1CC[C@@H]2C [Compound 1, 2-nor-1,2-secolycoserone] | 30 ± 0.1 | 36 ± 4.1 | 82 ± 4.5 | > 100 | 21 ± 4.5 | 23 ± 7.2 | 29.2 | 3.15 | 31 ± 0.3 | 25 ± 5.6 | slight relaxation effect; also recorded: do not cause vascular relaxation | IC50 (MCF-7): 15 µM |
| CC1=C(CC/C(C)=C/CO)[C@]2(C)CCCC(C)(C)C2CC1 (stereo partly drawn) [Compound 2, ent-labda-8,13-E-diene-15-ol] | 5.1 ± 0.3 | 9 ± 3.4 | 46 ± 0.3 | 69 ± 27 | 4.8 ± 0.3 | 4.5 ± 0.1 | 63.1 | 18.8 | 10 ± 1.3 | 5.4 ± 0.6 | slight relaxation effect; also recorded: do not cause vascular relaxation; also recorded: no vascular relaxation | apoptosis kinetics (onset of cell death) (HeLa cells): induce death in HeLa cells earlier than coumarin 1; GI50 [4]: 4.5 to 10 µM |
